Data taken from patent publication US11691986B2, “PTEFB inhibiting macrocyclic compounds” (Bayer Aktiengesellschaft, priority 2017, dated 2023).
Where “and” joins values, the source holds several entries; their conditions need not be identical. Identical values can stand only once.

Columns and labels:
CDK9/CycT1 = molecular target: T1, CDK9/CycT1 (Homo sapiens, UniProt P50750); assay: CDK9/CycT1 high ATP kinase assay (TR-FRET); type: biochemical; settings: 2 mM ATP; for IC50: Method 1b; for Selectivity high ATP CDK9 over high ATP CDK2: IC50 (high ATP CDK2)/IC50 (high ATP CDK9): minimal values where CDK9 IC50 is at the assay limit of about 1-2 nM
T1 construct: Recombinant full-length His-tagged human CDK9 and CycT1; His; purchased Life Technologies PV4131; host or cells: insect cells
Procedure: 1b. CDK9/CycT1 High ATP Kinase Assay
CDK9/CycT1-inhibitory activity of compounds of the present invention at a high ATP concentration after preincubation of enzyme and test compounds was quantified employing the CDK9/CycT1 TR-FRET assay as described in the following paragraphs.
Recombinant full-length His-tagged human CDK9 and CycT1, expressed in insect cells and purified by Ni-NTA affinity chromatography, were purchased from Life Technologies (Cat. No PV4131). As substrate for the kinase reaction biotinylated peptide biotin-Ttds-YISPLKSPYKISEG (C-terminus in amide form) was used which can be purchased e.g. form the company JERINI peptide technologies (Berlin, Germany).
(§1) For the assay 50 nl of a 100 fold concentrated solution of the test compound in DMSO was pipetted into either a black low volume 384 well microtiter plate or a black 1536 well microtiter plate (both Greiner Bio-One, Frickenhausen, Germany), 2 μl of a solution of CDK9/CycT1 in aqueous assay buffer [50 mM Tris/HCl pH 8.0, 10 mM MgCl2, 1.0 mM dithiothreitol, 0.1 mM sodium ortho-vanadate, 0.01% (v/v) Nonidet-P40 (Sigma)] were added and the mixture was incubated for 15 min at 22° C. to allow pre-binding of the test compounds to the enzyme before the start of the kinase reaction. […] The concentration of CDK9/CycT1 was adjusted depending of the activity of the enzyme lot and was chosen appropriate to have the assay in the linear range, typical concentrations were in the range of 0.5 μg/ml. The reaction was stopped by the addition of 3 μl of a solution of TR-FRET detection reagents (0.33 μM streptavidine-XL665 [Cisbio Bioassays, Codolet, France] and 1.67 nM anti-RB(pSer807/pSer811)-antibody from BD Pharmingen [#558389] and 2 nM LANCE EU-W1024 labeled anti-mouse IgG antibody [Perkin-Elmer, product no. AD0077]) in an aqueous EDTA-solution (167 mM EDTA, 0.2% (w/v) bovine serum albumin in 100 mM HEPES pH 7.5).
(§2) The resulting mixture was incubated 1 h at 22° C. to allow the formation of complex between the phosphorylated biotinylated peptide and the detection reagents. Subsequently the amount of phosphorylated substrate was evaluated by measurement of the resonance energy transfer from the Eu-chelate to the streptavidine-XL. Therefore, the fluorescence emissions at 620 nm and 665 nm after excitation at 350 nm was measured in a TR-FRET reader, e.g. a Pherastar (BMG Labtechnologies, Offenburg, Germany) or a Viewlux (Perkin-Elmer). The ratio of the emissions at 665 nm and at […] was taken as the measure for the amount of phosphorylated substrate. The data were normalised (enzyme reaction without inhibitor=0% inhibition, all other assay components but no enzyme=100% inhibition).

CDK2/CycE = molecular target: T2, CDK2/CycE (Homo sapiens, UniProt P24941); assay: CDK2/CycE high ATP kinase assay (TR-FRET); type: biochemical; settings: 2 mM ATP, Method 2b
T2 construct: GST; purchased ProQinase GmbH (Freiburg, Germany); host or cells: insect cells (Sf9)
Procedure: 2b. CDK2/CycE High ATP Kinase Assay
CDK2/CycE-inhibitory activity of compounds of the present invention at 2 mM adenosine-tri-phosphate (ATP) was quantified employing the CDK2/CycE TR-FRET (TR-FRET=Time Resolved Fluorescence Energy Transfer) assay as described in the following paragraphs.
Recombinant fusion proteins of GST and human CDK2 and of GST and human CycE, expressed in insect cells (Sf9) and purified by Glutathion-Sepharose affinity chromatography, were purchase from ProQinase GmbH (Freiburg, Germany). As substrate for the kinase reaction biotinylated peptide biotin-Ttds-YISPLKSPYKISEG (C-terminus in amid form) was used which can be purchased e.g. form the company JERINI peptide technologies (Berlin, Germany).
as §1, with “CDK2/CycE” for “CDK9/CycT1”, “about 10 ng/ml.” for “in the range of 0.5 μg/ml.”, “(0.333” for “(0.33”, “AD0077, as an alternative a Terbium-cryptate-labeled anti-mouse IgG antibody from Cisbio Bioassays can be used])” for “AD0077])”
as §2

A2780 cells = assay: Proliferation assay, A2780 (Cell Titre-Glo); type: cell-based; settings: Homo sapiens; A2780, 72-hour exposure; read-out: Inhibition of A2780 cell proliferation IC50
Procedure: A2780 human ovarian carcinoma cells (ECACC #93112519) and non-adherent MOLM-13 human acute myeloid leukemia cells (DSMZ ACC 554) were seeded at a density of 3,000 cell/well (A2780) or 5,000 cells/well (MOLM-13) in a 96-well multititer plate in 150 μL of growth medium supplemented 10% fetal calf serum. After 24 hours, cell viability of one plate (zero-point plate) was determined with the Cell Titre-Glo Luminescent Cell Viability Assay (Promega), while the medium of the other plates was supplemented with the test substances in various concentrations (0 μM, as well as in the range of 0.0001-10 μM; the final concentration of the solvent dimethyl sulfoxide was adjusted to 0.1%) using a Hewlett-Packard HP D300 Digital Dispenser. Cell viability was assessed after 72-hour exposure with the Cell Titre-Glo Luminescent Cell Viability Assay (Promega). IC50 values (inhibitory concentration at 50% of maximal effect) were determined by means of a 4 parameter fit on measurement data which were normalized to vehicle (DMSO) treated cells (=100%) and measurement readings taken immediately before compound exposure (=0%).

[1] = molecular target: T3, human PTEFb (CDK9/Cyclin T1) (Homo sapiens, UniProt P50750); assay: Surface Plasmon Resonance PTEFb; type: binding; settings: SPR, 37° C.; for Target residence time: 1/koff; for Kd: * = arithmetic mean of more than one value, read-out: Equilibrium dissociation constant KD
T3 construct: purchased ProQinase, Freiburg, Germany
From the text: 8. Surface Plasmon Resonance PTEFb
The ability of the compounds according to the invention to bind human PTEFb may be determined using surface plasmon resonance (SPR). KD values and koff values may be measured using a Biacore® T200 instrument (GE Healthcare, Uppsala, Sweden).
For SPR measurements, recombinant human PTEFb (CDK9/Cyclin T1 recombinant human active protein kinase purchased from ProQinase, Freiburg, Germany) is immobilized using standard amine coupling (Johnsson B et al, Anal Biochem. 1991 Nov. 1; 198(2):268-77). Briefly, carboxymethylated dextran biosensor chips (CM7, GE Healthcare) are activated with N-ethyl-N′-(3-dimethylaminopropyl)-carbodiimide hydrochloride (EDC) and N-hydroxysuccinimide (NHS) according to the supplier's instructions. Human PTEFb is diluted in 1×HBS-EP+(GE Healthcare) and injected on the activated chip surface. Subsequently, a 1:1 solution of 1 M ethanolamine-HCl (GE Healthcare) and 1×HBS-EP is injected to block unreacted groups, resulting in approximately 4000 response units (RU) of immobilized protein. A reference surface is generated by treatment with NHS-EDC and ethanolamine-HCl. Compounds are dissolved in 100% dimethylsulfoxide (DMSO, Sigma-Aldrich, Germany) to a concentration of 10 mM and subsequently diluted in running buffer (1×HBS-EP+pH 7.4 [generated from HBS-EP+Buffer 10×(GE Healthcare): 0.1 M HEPES, 1.5 M NaCl, 30 mM EDTA and 0.5% v/v Surfactant P20], 1% v/v DMSO). For kinetic measurements, serial dilutions of compound (0.078 nM up to 25 nM) are injected over immobilized protein. Binding kinetics is measured at 37° C. with a flow rate of 100 μl/min in running buffer. Compound concentrations are injected for 70 s followed by a dissociation time of 1100 s. The resulting sensorgrams are double-referenced against the reference surface as well as against blank injections.
The double-referenced sensorgrams are fit to a simple reversible Langmuir 1:1 reaction mechanism as implemented in the Biacore® T200 evaluation software 2.0 (GE Healthcare). In cases were full compound dissociation has not occurred at the end of the dissociation phase, the Rmax parameter (response at saturation) is fit as local variable. In all other cases, Rmax is fit as global variable.

bronchospasms = settings: in vivo; cited from earlier work

T1 sequence (P50750 whole entry): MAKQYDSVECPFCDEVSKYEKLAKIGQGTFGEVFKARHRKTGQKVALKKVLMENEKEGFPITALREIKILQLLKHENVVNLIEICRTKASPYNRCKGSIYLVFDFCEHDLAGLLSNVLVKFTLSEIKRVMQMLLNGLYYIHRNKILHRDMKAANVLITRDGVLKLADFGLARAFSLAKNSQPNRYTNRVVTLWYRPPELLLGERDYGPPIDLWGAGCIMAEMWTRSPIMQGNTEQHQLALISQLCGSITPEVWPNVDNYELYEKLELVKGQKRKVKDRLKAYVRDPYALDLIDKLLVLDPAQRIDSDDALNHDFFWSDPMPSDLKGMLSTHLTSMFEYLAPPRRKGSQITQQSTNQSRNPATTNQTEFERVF
T1 sequence (O60563 whole entry partner): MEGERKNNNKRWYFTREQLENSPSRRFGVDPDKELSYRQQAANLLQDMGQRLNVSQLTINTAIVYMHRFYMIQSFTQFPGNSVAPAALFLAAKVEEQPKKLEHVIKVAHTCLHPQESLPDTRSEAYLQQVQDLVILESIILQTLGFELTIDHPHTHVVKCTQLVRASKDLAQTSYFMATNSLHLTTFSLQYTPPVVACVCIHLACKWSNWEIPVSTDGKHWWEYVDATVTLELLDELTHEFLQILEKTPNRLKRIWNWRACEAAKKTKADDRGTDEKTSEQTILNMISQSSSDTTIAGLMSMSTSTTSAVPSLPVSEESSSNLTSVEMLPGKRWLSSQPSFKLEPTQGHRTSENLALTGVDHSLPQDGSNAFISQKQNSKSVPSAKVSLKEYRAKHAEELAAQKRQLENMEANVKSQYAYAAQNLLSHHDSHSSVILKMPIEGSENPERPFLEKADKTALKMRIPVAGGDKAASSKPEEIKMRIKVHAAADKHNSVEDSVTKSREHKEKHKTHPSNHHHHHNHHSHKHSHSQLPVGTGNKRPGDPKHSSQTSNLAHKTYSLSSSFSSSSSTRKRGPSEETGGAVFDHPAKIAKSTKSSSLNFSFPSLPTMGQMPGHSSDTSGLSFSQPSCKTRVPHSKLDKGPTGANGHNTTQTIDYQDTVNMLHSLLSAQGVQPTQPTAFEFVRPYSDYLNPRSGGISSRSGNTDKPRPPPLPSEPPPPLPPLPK
T3 sequence (P50750 whole entry): as the sequence (P50750 whole entry) above
T3 sequence (O60563 whole entry partner): as the sequence (O60563 whole entry partner) above

Row | IC50 (CDK9/CycT1) [nM] | Selectivity high ATP CDK9 over high ATP CDK2: IC50 (high ATP CDK2)/IC50 (high ATP CDK9) (CDK9/CycT1) | IC50 (CDK2/CycE) [nM] | IC50 (A2780 cells) [nM] | Target residence time ([1]; * = arithmetic mean) | Kd [1] | Dissociation rate constant koff ([1]; * = arithmetic mean, < = below what is resolvable) | Structure (SMILES) | protection against bronchospasms (duration) (bronchospasms)
1 | 1.6 | 216 | 357 | 3.4 | – | – | – | CS(=N)(=O)Cc1cc2cc(c1)OCCCCCNc1cc(ccc1F)-c1nc(ncc1F)N2 (racemic) [Example 5, (rac)-3,21-difluoro-10-[(S-methylsulfonimidoyl)methyl]-13-oxa-5,7,19,26-tetraazatetracyclo[18.3.1.1^2,6.1^8,12]hexacosa-1(24),2(26),3,5,8(25),9,11,20,22-nonaene] | –
2 | 2.3 | 37 | 85 | – | > 208 min | 0.046 nM and 0.022 nM and 0.015 nM and 0.062 nM and 0.11 nM and 0.031 nM and 0.07 nM and 0.054 nM | – | CS(=N)(=O)Cc1cc2cc(c1)OCCCCNc1cc(ccc1F)-c1nc(ncc1F)N2 (single isomer, unassigned) [Example 9, 3,20-difluoro-10-[(S-methylsulfonimidoyl)methyl]-13-oxa-5,7,18,25-tetraazatetracyclo[17.3.1.1^2,6.1^8,12]pentacosa-1(23),2(25),3,5,8(24),9,11,19,21-nonaene] | –
3 | – | – | – | – | – | – | – | C[N+]1(C)[C@@H]2C[C@@H](OC(=O)C(O)(c3cccs3)c3cccs3)C[C@H]1[C@@H]1O[C@@H]12 [tiotropium] | more than 6 hours
4 | 4 | 6.3 | 25 | 6.7 | – | – | – | CS(=N)(=O)Cc1cc2nc(c1)OCCCCNc1cc(ccc1F)-c1cc(ncc1F)N2 (racemic) [Example 6, (rac)-3,20-difluoro-10-[(S-methylsulfonimidoyl)methyl]-13-oxa-5,7,18,24-tetraazatetracyclo[17.3.1.1^2,6.1^8,12]pentacosa-1(23),2(25),3,5,8(24),9,11,19,21-nonaene] | –
5 | 1.6 | 79 | 130 | – | 37* min | 0.15 nM | 4.5E−4* 1/s | CS(=N)(=O)Cc1cc2cc(c1)OCCCCNc1cc(ccc1F)-c1nc(ncc1F)N2 (single isomer, unassigned) [Example 10, 3,20-difluoro-10-[(S-methylsulfonimidoyl)methyl]-13-oxa-5,7,18,25-tetraazatetracyclo[17.3.1.1^2,6.1^8,12]pentacosa-1(23),2(25),3,5,8(24),9,11,19,21-nonaene] | –
6 | 1.4 | 2740 | 3670 | 31 | – | – | – | CC(C)(C)OC(=O)N=S(C)(=O)Cc1cc2cc(c1)OCCCCCNc1cc(ccc1F)-c1nc(ncc1F)N2 (racemic) [Example 4, (rac)-tert-butyl [{[3,21-difluoro-13-oxa-5,7,19,26-tetraazatetracyclo[18.3.1.1^2,6.1^8,12]hexacosa-1(24),2(26),3,5,8(25),9,11,20,22-nonaen-10-yl]methyl}(methyl)oxido-λ^6-sulfanylidene]carbamate] | –
7 | 3.9 | 762 | 2980 | 71 | – | – | – | CSCc1cc2cc(c1)OC(C)CCCNc1cc(ccc1F)-c1nc(ncc1F)N2 (racemic) [Example 7, (rac)-3,20-difluoro-14-methyl-10-[(methylsulfanyl)methyl]-13-oxa-5,7,18,25-tetraazatetracyclo[17.3.1.1^2,6.1^8,12]pentacosa-1(23),2(25),3,5,8(24),9,11,19,21-nonaene] | –
